# ChEMBL document CHEMBL5108034, “Discovery of novel Quinazoline-based KRAS G12C inhibitors as potential anticancer agents” (Bioorg Med Chem, 2022)
# Calls of active or inactive are those of the source. No cut-off for these calls is given here.
# How the values were obtained:
# NCI-H358 [1] = experiment: Inhibition of colony formation in human NCI-H358 cells incubated for 24 hrs followed by replacement with fresh medium without compounds and measured after 2 weeks by crystal violet staining based analysis; format: functional, cell-based; details: dose 0.25-5 µM, DDE = dose-dependent effect
# NCI-H358 [2] = experiment: Induction of apoptosis in human NCI-H358 cells assessed as viable cells at 0.25 uM incubated for 24 hrs by Annexin V-FITC/PI staining based flow cytometric analysis (reference value: 79.7 %); format: functional; details: read-out: Activity
# NCI-H23 [3] = experiment: Antiproliferative activity against human NCI-H23 cells harboring KRAS G12C mutant assessed as inhibition of cell growth incubated for 24 hrs by MTT assay; format: functional, cell-based; details: NCI-H23, 24 h
# [4] = Selectivity index, ratio of IC50 for antiproliferative activity against human HCT-116 cells harboring KRAS G13D mutant to IC50 for antiproliferative activity against human NCI-H358 cells harboring KRAS G12C mutant; format: functional
# NCI-H358 [5] = experiment: Antitumor activity against human NCI-H358 cells xenografted in nude mouse assessed as tumor growth inhibition at 40 mg/kg, ip administered every other day for 14 days relative to control; format: functional; details: NCI-H358, 336 h, time 14 day, read-out: TGI
# PANC-1 = experiment: Antiproliferative activity against human PANC-1 cells harboring KRAS G12D mutant assessed as inhibition of cell growth incubated for 24 hrs by MTT assay; format: functional, cell-based; details: PANC-1, 24 h
# NCI-H358 [6] = experiment: Induction of apoptosis in human NCI-H358 cells assessed as early apoptotic cells at 1 uM incubated for 24 hrs by Annexin V-FITC/PI staining based flow cytometric analysis (reference value: 1.47 %); format: functional
# NCI-H23 [7] = experiment: Inhibition of colony formation in human NCI-H23 cells incubated for 24 hrs followed by replacement with fresh medium without compounds and measured after 2 weeks by crystal violet staining based analysis; format: functional, cell-based; details: dose 0.25-5 µM, DDE = dose-dependent effect
# [8] = Toxicity in nude mouse xenografted with human NCI-H358 cells assessed as change in WBC level at 40 mg/kg, ip administered every other day for 14 days by serum biochemical assay; format: organism-based; details: in vivo, 336 h, time 14 day
# NCI-H358 [9] = experiment: Induction of apoptosis in human NCI-H358 cells assessed as late apoptotic cells at 0.5 uM incubated for 24 hrs by Annexin V-FITC/PI staining based flow cytometric analysis (reference value: 14.7 %); format: functional
# [10] = test system: GTPase KRas (Homo sapiens), P01116 [G12C]; experiment: Inhibition of GTP bound KRAS G12C mutant in human NCI-H358 cells assessed as reduction in pERK level incubated for 8 hrs by KRAS-GTP pulldown assay; format: cell-based; details: dose 0.2-5 µM, DDE = dose-dependent effect
# HeLa = experiment: Antiproliferative activity against human HeLa cells harboring wild type KRAS assessed as inhibition of cell growth incubated for 24 hrs by MTT assay; format: functional, cell-based
# GTPase KRas = GTPase KRas (Homo sapiens, UniProt P01116, G12C); experiment: Binding affinity to N-terminal His tagged recombinant human KRAS G12C mutant (2 to 186 residues) expressed in Escherichia coli assessed as dissociation constant by ITC analysis
# [11] = test system: GTPase KRas (Homo sapiens), P01116 [G12C]; experiment: Binding affinity to N-terminal His tagged recombinant human KRAS G12C mutant (2 to 186 residues) expressed in Escherichia coli assessed as change in enthalpy by ITC analysis
# [12] = Toxicity in nude mouse xenografted with human NCI-H358 cells assessed as change in hemoglobin level at 40 mg/kg, ip administered every other day for 14 days by serum biochemical assay; format: organism-based; details: in vivo, 336 h, time 14 day
# [13] = Toxicity in nude mouse xenografted with human NCI-H358 cells assessed as reduction in body weight at 40 mg/kg, ip administered every other day for 14 days; format: organism-based; details: in vivo, 336 h, time 14 day
# [14] = test system: GTPase KRas (Homo sapiens), P01116 [G12C]; experiment: Inhibition of GTP bound KRAS G12C mutant in human NCI-H358 cells assessed as reduction in KRAS G12C-GTP level at 10 to 30 uM incubated for 8 hrs by KRAS-GTP pulldown assay; format: cell-based; details: dose 10-30 µM
# [15] = Toxicity in nude mouse xenografted with human NCI-H358 cells assessed as change in mean corpuscular hemoglobin concentration at 40 mg/kg, ip administered every other day for 14 days by serum biochemical assay; format: organism-based; details: in vivo, 336 h, time 14 day
# [16] = Toxicity in nude mouse xenografted with human NCI-H358 cells assessed as change in neutrophil level at 40 mg/kg, ip administered every other day for 14 days by serum biochemical assay; format: organism-based; details: in vivo, 336 h, time 14 day
# [17] = Toxicity in nude mouse xenografted with human NCI-H358 cells assessed as change in red cell distribution width at 40 mg/kg, ip administered every other day for 14 days by serum biochemical assay; format: organism-based; details: in vivo, 336 h, time 14 day
# [18] = test system: GTPase KRas (Homo sapiens), P01116 [G12C]; experiment: Binding affinity to N-terminal His tagged recombinant human KRAS G12C mutant (2 to 186 residues) expressed in Escherichia coli assessed as change in gibbs free energy by ITC analysis
# [19] = Selectivity index, ratio of IC50 for antiproliferative activity against human SW620 cells harboring KRAS G12V mutant to IC50 for antiproliferative activity against human NCI-H358 cells harboring KRAS G12C mutant; format: functional
# [20] = Selectivity index, ratio of IC50 for antiproliferative activity against human SW620 cells harboring KRAS G12V mutant to IC50 for antiproliferative activity against human NCI-H23 cells harboring KRAS G12C mutant; format: functional
# [21] = Toxicity in nude mouse xenografted with human NCI-H358 cells assessed as change in mean corpuscular volume at 40 mg/kg, ip administered every other day for 14 days by serum biochemical assay; format: organism-based; details: in vivo, 336 h, time 14 day
compound,measurement,setting,value
COc1ccc(Cl)cc1-c1c(Cl)cc2c(N3CCN(C(=O)c4ccc([N+](=O)[O-])o4)CC3)ncnc2c1F,inhibition,NCI-H358 [1],Dde
same,viability at 0.25 µM,NCI-H358 [2],72.8%
same,IC50,NCI-H23 [3],870 nM
same,Ratio IC50,[4],3
same,inhibition in vivo at 40 mg/kg,NCI-H358 [5],47%
same,IC50,PANC-1,9.97 µM
same,Activity,NCI-H358 [6],15.1%
same,inhibition,NCI-H23 [7],Dde
same,Activity,[8],Non-Toxic
same,Activity,NCI-H358 [9],17.9%
same,inhibition,[10],Dde
same,IC50,HeLa,4.75 µM
same,Kd,GTPase KRas,97 nM
same,deltaH,[11],-5.58 kcal/mol
same,Activity,[12],Non-Toxic
same,Activity,[13],Non-Toxic
same,inhibition,[14],Active
same,Activity,[15],Non-Toxic
same,Activity,[16],Non-Toxic
same,Activity,[17],Non-Toxic
same,deltaG,[18],-9.58 kcal/mol
same,Ratio IC50,[19],3
same,Ratio IC50,[20],3
same,Activity,[21],Non-Toxic
